{
  "source": "patent US20130217908A1",
  "about": "“STABILISATION OF RADIOPHARMACEUTICAL PRECURSORS” (GE HEALTHCARE LIMITED, priority 2010, published 2013)",
  "key": {"[1]": {"assay": "Storage stability of the precursor of formula II with or without a drying agent, degradation by 19F NMR", "type": "physicochemical", "experimental": "To test the stability of the precursor of formula II when packed with a drying agent, a sample of the precursor was analysed by ^19F and ^1H measurements.\nThe following drying agents were used:\nMolecular sieve: 0.4 nm, Merck, Art. 5708, beads about 2 mm, pore size 4A Silica: Kiselgel, Merck, product no. 1.01969.5000\nThe drying agents used in the tests are typical drying agents for removing water from solvents and desiccators. The drying agents were both dried at 120° C. for about 90 hours before use.\nThe storage conditions for the precursor together with a drying agent were tested by storing together in the bottom of a small sample glass (mixed together) placed on a shelf in the lab (i.e. at room temperature). Also some samples without drying agent were set up. The first analysis of the samples with solid product was performed after 3.5 months storage and a second analysis was carried out after 5 months storage."}, "[2]": {"assay": "Earlier stability testing of the compound of formula II at set storage temperatures", "type": "physicochemical"}, "[3]": {"conditions": "solid, stored in a small sample glass at room temperature"}, "[4]": {"conditions": "solid, stored in a small sample glass at room temperature, listed as precursor"}, "[5]": {"conditions": "stored in freezer, reference, no drying agent"}},
  "data": [
    {"compound": "CCOC(=O)[C@]1(NC(=O)OC(C)(C)C)C[C@@H](OS(=O)(=O)C(F)(F)F)C1", "note": "[PRECURSOR, 1-(N-(t-butoxycarbonyl)amino)-3-[((trifluoromethyl)sulfonyl)oxy]-cyclobutane-1-carboxylic acid ethyl ester]", "values": [
      {"measurement": "19F NMR results, degradation (mole %) after 3.5 months", "setting": "[1]; [3]", "value": 30.7, "unit": "mole %"},
      {"measurement": "19F NMR results, degradation (mole %) after 3.5 months", "setting": "[1]; [4]", "value": "about 30 mole %"},
      {"measurement": "19F NMR results, degradation (mole %) after 5 months", "setting": "[1]; [3]", "value": 96.6, "unit": "mole %"},
      {"measurement": "19F NMR results, degradation (mole %) after 5 months", "setting": "[1]; [4]", "value": "about 97 mole %"},
      {"measurement": "19F NMR results, degradation (mole %) after 3.5 months", "setting": "[1]; [5]", "value": 0.7, "unit": "mole %"},
      {"measurement": "19F NMR results, degradation (mole %) after 5 months", "setting": "[1]; [5]", "value": 0.6, "unit": "mole %"},
      {"measurement": "hygroscopicity (observation)", "setting": "[2]", "value": "hygroscopic"},
      {"measurement": "period over which the compound is stable", "setting": "[2]; stability testing at 25° C.", "value": "~1", "unit": "month"},
      {"measurement": "stability at storage conditions", "setting": "[2]; storage between −20° C. and −5° C.", "value": "acceptable stability"}
    ]}
  ]
}
